Patent US9278940B2, “Cyclic amines as bromodomain inhibitors” (Zenith Epigenetics Corp., priority 2012, dated 2016)

Assays:
[1] = target: T1, Brd4 bromodomain 1 (Homo sapiens, UniProt O60885); assay: Inhibition of tetra-acetylated histone H4 binding to BET bromodomain (TR-FRET); design: key: Active: Compounds with an IC50 value less than 30 μM were deemed to be active.; Not Active: Compounds with an IC50 value less than 30 μM were deemed to be active; settings: Brd4 bromodomain 1, tetra-acetylated histone H4 peptide
T1 construct: made in house; host or cells: E. coli BL21(DE3)
Description: Proteins were cloned and overexpressed with a N-terminal 6×His tag, then purified by nickel affinity followed by size exclusion chromatography. Briefly, E. coli BL21(DE3) cells were transformed with a recombinant expression vector encoding N-terminally Nickel affinity tagged bromodomains from Brd2, Brd3, Brd4. Cell cultures were incubated at 37° C. with shaking to the appropriate density and induced overnight with IPTG. The supernatant of lysed cells was loaded onto Ni-IDA column for purification. Eluted protein is pooled, concentrated and further purified by size exclusion chromatography. Fractions representing monomeric protein were pooled, concentrated, aliquoted, and frozen at −80° C. for use in subsequent experiments.
Binding of tetra-acetylated histone H4 and BET bromodomains was confirmed by a Time Resolved Fluorescence Resonance Energy Transfer (TR-FRET) method. N-terminally His-tagged bromodomains (200 nM) and biotinylated tetra-acetylated histone H4 peptide (25-50 nM, Millipore) were incubated in the presence of Europium Cryptate-labeled streptavidin (Cisbio Cat. #610SAKLB) and XL665-labeled monoclonal anti-His antibody (Cisbio Cat. #61HISXLB) in a white 96 well microtiter plate (Greiner). For inhibition assays, serially diluted test compound was added to these reactions in a 0.2% final concentration of DMSO. Final buffer concentrations were 30 mM HEPES pH 7.4, 30 mM NaCl, 0.3 mM CHAPS, 20 mM phosphate pH 7.0, 320 mM KF, 0.08% BSA). After 2 hours incubation at room temperature, the fluorescence by FRET was measured at 665 and 620 nm by a SynergyH4 plate reader (Biotek). The binding inhibitory activity was shown by a decrease in 665 nm fluorescence relative to 620 nm. IC50 values were determined from a dose response curve.

[2] = test system: c-myc; assay: Inhibition of c-myc expression (mRNA, real-time PCR) in MV4-11 cells; assay type: cell-based; design: key: Active: Compounds with an IC50 value less than 30 μM were deemed to be active.; Not Active: Compounds with an IC50 value less than 30 μM were deemed to be active; settings: Human AML MV4-11 cells, 3 hours
Description: MV4-11 cells (2.5×10^4 cells) were plated in 96 well U-bottom plates with test compound or DMSO (0.1%), and incubated for 3 hours at 37° C. Cells were then harvested by centrifugation, lysed, and mRNA was isolated using the mRNA catcher plus kit (Invitrogen). Reverse transcription of the mRNA and duplex amplification of the c-myc and cyclophilin cDNAs was performed using the RNA Ultrasense kit (Invitrogen) and a ViiA7 real-time PCR machine (Applied Biosystems). IC50 values were determined from a dose response curve.

[3] = test system: Human AML MV-4-11 cells; assay: Inhibition of cell proliferation in MV4-11 cells; assay type: cell-based; design: key: Active: Compounds with an IC50 value less than 30 μM are deemed to be active.; Not Active: Compounds with an IC50 value less than 30 μM are deemed to be active; settings: 72 hours
Description: MV4-11 cells: 96-well plates were seeded with 5×10^4 cells per well of exponentially growing human AML MV-4-11 (CRL-9591) cells and immediately treated with two-fold dilutions of test compounds, ranging from 30 μM to 0.2 μM. Triplicate wells were used for each concentration, as well as a media only and three DMSO control wells. The cells and compounds were incubated at 37° C., 5% CO2 for 72 hours before adding 20 μL of the CellTiter Aqueous One Solution (Promega) to each well and incubating at 37° C., 5% CO2 for an additional 3-4 hours. The absorbance was taken at 490 nm in a spectrophotometer and the percentage of proliferation relative to DMSO-treated cells was calculated after correction from the blank well. IC50 were calculated using the GraphPad Prism software.

[4] = test system: hIL-6 mRNA; assay: Inhibition of hIL-6 mRNA transcription in LPS-stimulated U937 macrophages; assay type: cell-based, human; design: key: Active: Compounds with an IC50 value less than 30 μM are deemed to be active.; Not Active: Compounds with an IC50 value less than 30 μM are deemed to be active; settings: U937 cells differentiated with PMA, 1 h pretreatment, LPS 3 h
Description: In this example, hIL-6 mRNA in tissue culture cells was quantitated to measure the transcriptional inhibition of hIL-6 when treated with a compound of the present disclosure.
A human leukemic monocyte lymphoma cell line (U937) was plated (3.2×10^4 cells per well) in a 96-well plate in […] RPMI-1640 containing 10% FBS and penicillin/streptomycin, and differentiated into macrophages for 3 days in 60 ng/mL PMA ([…]) at 37° C. in 5% CO2 prior to the addition of the compound of interest. The cells were pretreated for 1 h with the test compound prior to stimulation with 1 ug/mL lipopolysaccharide from Escherichia coli. The cells were incubated at 37-C for 3 h before the cells were harvested. At time of harvest, the spent media was removed from the cells and the cells were rinsed in 200 μL PBS. Cell lysis solution (70 μL) was added the cells in each well and incubated for 5-10 min at room temperature, to allow for complete cell lysis and detachment. mRNA was then prepared using the “mRNA Catcher PLUS plate” (Invitrogen), according to the protocol supplied. After the last wash, as much wash buffer as possible was aspirated without allowing the wells to dry. Elution buffer (E3, 70 μL) was then added to each well. mRNA was then eluted by incubating the mRNA Catcher PLUS plate with Elution Buffer for 5 min at 68° C. and then immediately placing the plate on ice.
The eluted mRNA isolated was then used in a one-step quantitative real-time PCR reaction, using components of the Ultra Sense Kit together with Applied Biosystems primer-probe mixes. Real-time PCR data was analyzed, normalizing the Ct values for hIL-6 to an internal control, prior to determining the fold induction of each unknown sample, relative to the control.

[5] = test system: hApoA-1 mRNA; assay: Up-regulation of hApoA-1 mRNA transcription in Huh7 cells; assay type: cell-based, human; design: key: Active: Compounds with an EC170 value less than 30 μM are deemed to be active.; Not Active: Compounds with an EC170 value less than 30 μM are deemed to be active; settings: 48 hrs treatment, ApoA-I mRNA
Description: In this example, ApoA-I mRNA in tissue culture cells was quantitated to measure the transcriptional up-regulation of ApoA-I when treated with a compound of the present disclosure.
Huh7 cells ([…] per well) were plated in a 96-well plate using 100 μL DMEM per well, (Gibco DMEM supplemented with penicillin/streptomycin and 10% FBS), 24 h before the addition of the compound of interest. After 48 hrs treatment, the spent media was removed from the Huh-7 cells and placed on ice (for immediate use) or at −80° C. (for future use) with the “LDH cytotoxicity assay Kit II” from Abcam. The cells remaining in the plate were rinsed with 100 μL PBS.
Then 85 μL of cell lysis solution was added to each well and incubated for 5-10 minutes at room temperature, to allow for complete cell lysis and detachment. mRNA was then prepared using the “mRNA Catcher PLUS plate” from Life Technologies, according to the protocol supplied. After the last wash, as much wash buffer as possible was aspirated without allowing the wells to dry. Elution Buffer (E3, 80 μL) was then added to each well. mRNA was then eluted by incubating the mRNA Catcher PLUS plate with Elution Buffer for 5 minutes at 68° C., and then 1 minute at 4° C. Catcher plates with mRNA eluted were kept on ice for use or stored at −80° C.
The eluted mRNA isolated was then used in a one-step real-time PCR reaction, using components of the Ultra Sense Kit together with Life Technologies primer-probe mixes. Real-time PCR data was analyzed, using the Ct values, to determine the fold induction of each unknown sample, relative to the control (that is, relative to the control for each independent DMSO concentration).
Compounds with an EC170 value less than 30 μM are deemed to be active.

Row | FRET activity (IC50 < 30 μM) [1] | c-myc activity (IC50 < 30 μM) [2] | cell proliferation activity (IC50 < 30 μM) [3] | IL-6 activity (IC50 < 30 μM) [4] | melting point | Structure (SMILES) | ApoA-1 activity (EC170 < 30 μM) [5]
1 | Active | Active | Not Active | Active | 251 to 253 °C | COc1cc(OC)c2c(=O)[nH]c(-c3cccc(N4CCN(C(C)C)CC4)c3)nc2c1 [Example 1, 2-(3-(4-Isopropylpiperazin-1-yl)phenyl)-5,7-dimethoxyquinazolin-4(3H)-one] | Active
2 | Active | Active | Active | Active | 212 to 213 °C | COc1cc(-c2nc3cc(OC)cc(OC)c3c(=O)[nH]2)cc(N2CCN(C(C)C)CC2)c1 [Example 2, 2-(3-(4-Isopropylpiperazin-1-yl)-5-methoxyphenyl)-5,7-dimethoxyquinazolin-4(3H)-one] | Active
3 | Active | Active | Active | Active | 99 to 101 °C | COCCN1CCN(c2cccc(-c3nc4cc(OC)cc(OC)c4c(=O)[nH]3)n2)CC1 [Example 3, 5,7-Dimethoxy-2-(6-(4-(2-methoxyethyl)piperazin-1yl)pyridin-2-yl)quinazolin-4(3H)-one] | Active
4 | Active | Active | Active | Active | 175 to 177 °C | COc1cc(OC)c2c(=O)[nH]c(-c3cccc(N4CCN(CCO)CC4)n3)nc2c1 [Example 4, 2-(6-(4-(2-Hydroxyethyl)piperazin-1-yl)pyridin-2-yl)-5,7-dimethoxyquinazolin-4(3H)-one] | Active
5 | Active | Active | Active | Active | 188 to 189 °C | COc1cc(OC)c2c(=O)[nH]c(-c3cccc(N4CCN(CC(C)C)CC4)n3)nc2c1 [Example 5, 2-(6-(4-Isobutylpiperazin-1-yl)pyridin-2-yl)-5,7-dimethoxyquinazolin-4(3H)-one] | Active
6 | Active | Active | Active | Active | 202 to 204 °C | COc1cc(OC)c2c(=O)[nH]c(-c3cccc(N4CCN(C(C)CO)CC4)n3)nc2c1 (stereo not shown) [Example 8, 2-(6-(4-(1-Hydroxypropan-2-yl)piperazin-1-yl)pyridin-2-yl)-5,7-dimethoxyquinazolin-4(3H)-one] | Active
7 | Active | Not Active | Active | Not Active | 149 to 150 °C | COc1cc(OC)c2c(=O)[nH]c(-c3cccc(N4CCN(C(C)C(N)=O)CC4)n3)nc2c1 (stereo not shown) [Example 9, 2-(4-(6-(5,7-Dimethoxy-4-oxo-3,4-dihydroquinazolin-2-yl)pyridin-2-yl)piperazin-1-yl)propanamide] | Active
8 | Active |  |  | Not Active | 241 °C (dec.) | COc1cc(OC)c2c(=O)[nH]c(-c3cccc(N4CCN(CCC(=O)O)CC4)n3)nc2c1 [Example 11, 3-(4-(6-(5,7-Dimethoxy-4-oxo-3,4-dihydroquinazolin-2-yl)pyridin-2-yl)piperazin-1-yl)propanoic acid] | Not Active
9 | Active | Active | Active | Not Active | 208 to 210 °C | COc1cc(OC)c2c(=O)[nH]c(-c3ccc(OC)c(N4CCN(C(C)C)CC4)n3)nc2c1 [Example 14, 2-(6-(4-Isopropylpiperazin-1-yl)-5-methoxypyridin-2-yl)-5,7-dimethoxyquinazolin-4(3H)-one] | Active
